Measurements from patent EP0425828A2, “Facteur thymique sérique for prevention and remedy of disorders of decrease in the number of blood corpuscles” (MITSUI TOATSU CHEMICALS, Inc., priority 1989, dated 1991).
Square brackets hold non-standard residues; d marks the D form. Peptide text beside a SMILES is read from it. pGlu = O=C1CC[C@@H](C(=O)O)N1

Columns and labels:
[1] = test system: leucocytes in peripheral blood; test: Effect on mice to which MMC was intraperitoneally administered: leucocyte count; type: in vivo, female ICR/JCL mice; conditions: MMC alone, 20 µg/0.1 ml i.p. once a day for 10 days
Description: Four groups each consisting of 6 female ICR/JCL mice of 5 weeks old were treated as follows: For the first group, 0.1 ml of physiological saline was intraperitoneally administered to the mice for consecutive 12 days. For the second group, FTS substance was subcutaneously administered once a day in an amount of 100 u.g for consecutive 12 days. For the third group, MMC was intraperitoneally administered once a day in an amount of 20 µg/0.1 ml for 10 days from the zero day to the 9th day of the experiment. For the fourth group, FTS substance was subcutaneously administered to the mice once a day in an amount of 100 µg for consecutive 12 days from 2 days before the administration of MMC, and for 10 days from the […] after the administration of FTS substance MMC was intraperitoneally administered once a day in an amount of 20 u.g/0.1 ml. After the administration of the anti-cancer agent, blood was collected on alternate days from oculus vein and the numbr of leucocytes in the blood was counted.

[2] = test system: ddy strain male mice; test: Toxicity test in mice, repeated subcutaneous administration; type: in vivo; conditions: for toxicity: five ddy strain male mice of 5 weeks old
From the text: (§1) Thus, the medicament of the present invention is a safe medicament of extremely low toxicity and can be administered for a long period of time.

[3] = test system: Wistar rats; test: Toxicity test in rats, repeated subcutaneous administration; type: in vivo; conditions: 30 mg/kg s.c. for consecutive 21 days
From the text: as §1

[4] = test system: leucocytes (WBC); test: Effect on mice to which cyclophosphamide (CPA) was intraperitoneally administered: blood inspection, WBC; type: in vivo, male C3H/HeN mice; conditions: for WBC, mean value ± S.D.: 400 mg/kg of CPA alone i.p. once on day zero
Description: (§2) Several groups each consisting of 10 male C3H/HeN mice of 8 weeks old were prepared. For the first group, 0.2 ml of physiological saline was subcutaneously administered for consecutive 12 days from 2 days before the examination to the 9th day of the examination. For the second group, FTS substance was subcutaneously administered once a day in an amount of 100 iig/0.2 ml for consecutive 12 days. For the third group, CPA was intraperitoneally administered in an amount of 400 mg/kg once on the zero day of the examination. For the fourth group, an administration schedule combining the second group with the third group was applied to the mice. For the fifth group, CPA was intraperitoneally administered in an amount 200 mg/kg once on the zero day of the examination. For the sixth group, an administration schedule combining the second group with the fifth group was applied to the mice. For the seventh group, CPA was intraperitoneally administered in an amount of 100 mg/kg once on the zero day of the examination. For the eighth group, an administration schedule combining the second group with the seventh group to the mice. During the examination, blood was collected by cutting axillary artery on the days of examination (0, 3rd, 5th, 7th, 10th and 14th days) and subjected to a blood inspection to measure the number of leucocytes (WBC), the number of erythrocytes (RBC), the number of reticulocytes (RET), the number of platelets (PLT), the number of hemoglobin (HGB), hematocrit value (HCT), a mean corpuscular volume, a mean corpuscular hemoglobin and a mean corpuscular hemoglobin concentration.

[5] = test system: reticulocytes (RET); test: Effect on mice to which CPA was intraperitoneally administered: blood inspection, RET; type: in vivo, male C3H/HeN mice
Description: as §2, with “During the examination, blood was collected by cutting axillary artery on the days of examination (0, 3rd, 5th, 7th, 10th and 14th days) and subjected to a blood inspection to measure the number of leucocytes (WBC), the number of erythrocytes (RBC), the number of reticulocytes (RET), the number of platelets (PLT), the number of hemoglobin (HGB), hematocrit value (HCT), a mean corpuscular volume, a mean corpuscular hemoglobin and a mean corpuscular hemoglobin concentration.” left out

[6] = test system: platelets (PLT); test: Effect on mice to which CPA was intraperitoneally administered: blood inspection, PLT; type: in vivo, male C3H/HeN mice
Description: as §2

[7] = Effect on mice to which CPA was intraperitoneally administered: body weight; type: in vivo, male C3H/HeN mice; conditions: CPA alone
Description: as §2, with “During the examination, blood was collected by cutting axillary artery on the days of examination (0, 3rd, 5th, 7th, 10th and 14th days) and subjected to a blood inspection to measure the number of leucocytes (WBC), the number of erythrocytes (RBC), the number of reticulocytes (RET), the number of platelets (PLT), the number of hemoglobin (HGB), hematocrit value (HCT), a mean corpuscular volume, a mean corpuscular hemoglobin and a mean corpuscular hemoglobin concentration.” left out

[8] = 7th day, 400mg/kg of CPA alone i.p. once on day zero

Compound: CO[C@@]12[C@H](COC(N)=O)C3=C(C(=O)C(C)=C(N)C3=O)N1C[C@@H]1N[C@@H]12 [MMC, mitomycine C]
- number of leucocytes, lowest level as % of the maximum normal range [1]: about 40%

Compound: C[C@H](NC(=O)[C@@H]1CCC(=O)N1)C(=O)N[C@@H](CCCCN)C(=O)N[C@@H](CO)C(=O)N[C@@H](CCC(N)=O)C(=O)NCC(=O)NCC(=O)N[C@@H](CO)C(=O)N[C@@H](CC(N)=O)C(=O)O [effective ingredient, pGlu-Ala-Lys-Ser-Gln-Gly-Gly-Ser-Asn] ([pGlu]AKSQGGSN-OH)
- toxicity ([2]; 50 mg/kg s.c. for consecutive 14 days): No toxicity was observed
- abnormal symptoms by external check ([2]; 100 mg/kg s.c. every day for consecutive 14 days, mice): no abnormal symptom was found
- toxicity ([2]; 100mg/kg s.c. for consecutive 14 days): No toxicity was observed
- abnormal symptoms in external behavior observation, biochemical diagnosis of sera and pathological anatomy ([3]; rats): no abnormal symptom was found
- toxicity ([3]; ten Wistar rats of 5 weeks old): No toxicity was observed

Compound: O=P1(N(CCCl)CCCl)NCCCO1 (stereo not drawn) [CPA, cyclophosphamide]
- WBC, mean value ± S.D. ([4]; 3rd day): 11.6±2.1 x 10^2/mm^3
- WBC, mean value ± S.D. ([4]; 5th day): 4.2±1.0 x 10^2/mm^3
- WBC change ([4]; CPA alone 400 mg/kg, 200 mg/kg or 100 mg/kg, 3rd, 5th and 7th day, 5th day the minimum): considerably decreased
- RET [5, 8]: 27.2±5.0 0/00
- RET change ([5]; CPA administered, 5th day the minimum): RET was decreased
- PLT change ([6]; 400 mg/kg and 200 mg/kg of CPA, 7th day the minimum, recovered to the normal range on the 10th day): PLT was decreased
- PLT ([6]; 5th day, 400 mg/kg of CPA alone i.p. once on day zero): 357±82 x 10^3/mm^3
- PLT [6, 8]: 214±73 x 10^3/mm^3
- body weight change [7]: decrease in body weight
